Experimental data: patent US20220306695A1, “COMPSTATIN ANALOGUES AND THEIR MEDICAL USES” (priority 2019, published 2022)
Positions of bridges follow the written chain, without caps; N, C: chain ends. Non-standard residues stand in square brackets, D forms with d. Residues, ends and D or L forms follow the SMILES beside them. *: point of attachment. Trp(1-Me) = Cn1cc(C[C@H](N)C(=O)O)c2ccccc21; C18 diacid = O=C(O)CCCCCCCCCCCCCCCCC(=O)*; 2Nal = N[C@@H](Cc1ccc2ccccc2c1)C(=O)O; Sar = CNCC(=O)O

Assays:
[1] = Solubility test at 10 mg/mL (visual inspection and light scattering); format: physicochemical; details: for Solubility, Condition 1 Acetate pH 4: 10 mg/mL compound in 100 mM acetate pH 4; for Solubility, Condition 2 Acetate pH 5: 10 mg/mL compound in 100 mM acetate pH 5; for Solubility, Condition 3 Phosphate pH 6: 10 mg/mL compound in 100 mM phosphate pH 6; for Solubility, Condition 4 Phosphate pH 7: 10 mg/mL compound in 100 mM phosphate pH 7; for Solubility, Condition 5 Phosphate pH 7.5: 10 mg/mL compound in 100 mM phosphate pH 7.5
[2] = system: classical complement pathway; assay: In vitro haemolysis assay (inhibition of classical complement pathway); format: cell-based, human; details: Table 3; human serum, sensitized sheep red blood cells; read-out: IC50[nM], in vitro analysis of inhibition of hemolysis
Summary of the method: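 Serially diluted compound (9 points) was preincubated 15 min at room temperature with diluted human serum, titrated per batch to give 70-90% maximal haemolysis, in Tris/casein buffer pH 7.4 with Mg2+/Ca2+. Antibody-sensitized sheep erythrocytes were then added for 30 min at 37° C, and the reaction was stopped with EDTA. Haemolysis was read at A405, with IC50 from 4PL fit.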

| SMILES | Solubility, Condition 1 Acetate pH 4 [1] | Solubility, Condition 2 Acetate pH 5 [1] | Solubility, Condition 3 Phosphate pH 6 [1] | Solubility, Condition 4 Phosphate pH 7 [1] | Solubility, Condition 5 Phosphate pH 7.5 [1] | IC50 [2] [nM] |
| --- | --- | --- | --- | --- | --- | --- |
| CC[C@H](C)[C@@H]1NC(=O)[C@@H](NC(=O)[C@H](Cc2ccc(O)cc2)NC(=O)[C@H](CCC(=O)O)NC(=O)[C@H](CO)NC(=O)CNC(=O)[C@H](CCC(=O)O)NC(=O)CCCCCCCCCCCCCCCCC(=O)O)CSSC[C@@H](C(=O)N(C)CC(=O)N[C@@H](CCC(=O)O)C(N)=O)NC(=O)[C@H](CCCNC(=N)N)NC(=O)[C@H](Cc2c[nH]cn2)NC(=O)[C@H](CCC(=O)O)NC(=O)CNC(=O)[C@H](Cc2c[nH]c3ccccc23)NC(=O)[C@H](CC(=O)O)NC(=O)[C@H](CCC(N)=O)NC(=O)[C@H](Cc2cn(C)c3ccccc23)NC1=O [Compound 108] ({C18 diacid}-EGSEYCI[Trp(1-Me)]QDWGEHRC[Sar]E-NH2; disulfide 6-16) | − (denotes lack of solubility at the given condition, as UV absorbance at 340 nm exceeds 0.1 AU and/or it is visibly turbid or contains particles.) | − (denotes lack of solubility at the given condition, as UV absorbance at 340 nm exceeds 0.1 AU and/or it is visibly turbid or contains particles.) | + (denotes solubility at the given condition, as determined by UV absorbance being less than 0.1 AU at 340 nm and the sample being clear when manually inspected.) | + (denotes solubility at the given condition, as determined by UV absorbance being less than 0.1 AU at 340 nm and the sample being clear when manually inspected.) | + (denotes solubility at the given condition, as determined by UV absorbance being less than 0.1 AU at 340 nm and the sample being clear when manually inspected.) | < 500 |
| CC[C@H](C)[C@H](NC(=O)[C@H](C)NC(=O)[C@H](CO)NC(=O)CNC(=O)[C@H](CCC(=O)O)NC(C)=O)C(=O)N[C@H]1CSSC[C@@H](C(=O)N(C)CC(=O)N[C@@H](CCC(=O)O)C(N)=O)NC(=O)[C@H](CCCNC(=N)N)NC(=O)[C@H](Cc2c[nH]cn2)NC(=O)[C@H](CCC(=O)O)NC(=O)CNC(=O)[C@H](Cc2c[nH]c3ccccc23)NC(=O)[C@H](CC(=O)O)NC(=O)[C@H](CCC(N)=O)NC(=O)[C@H](Cc2ccc3ccccc3c2)NC(=O)[C@H]([C@@H](C)CC)NC1=O [Compound 50] (Ac-EGSAICI[2Nal]QDWGEHRC[Sar]E-NH2; disulfide 6-16) | − (denotes lack of solubility at the given condition, as UV absorbance at 340 nm exceeds 0.1 AU and/or it is visibly turbid or contains particles.) | − (denotes lack of solubility at the given condition, as UV absorbance at 340 nm exceeds 0.1 AU and/or it is visibly turbid or contains particles.) | + (denotes solubility at the given condition, as determined by UV absorbance being less than 0.1 AU at 340 nm and the sample being clear when manually inspected.) | + (denotes solubility at the given condition, as determined by UV absorbance being less than 0.1 AU at 340 nm and the sample being clear when manually inspected.) | + (denotes solubility at the given condition, as determined by UV absorbance being less than 0.1 AU at 340 nm and the sample being clear when manually inspected.) | < 100 |
| CC[C@H](C)[C@@H]1NC(=O)[C@@H](NC(=O)[C@H](Cc2ccccc2)NC(=O)[C@H](CCC(=O)O)NC(=O)[C@H](CO)NC(C)=O)CSSC[C@@H](C(=O)N(C)CC(=O)N[C@@H](CCC(=O)O)C(N)=O)NC(=O)[C@H](CCCNC(=N)N)NC(=O)[C@H](Cc2c[nH]cn2)NC(=O)[C@H](CCC(=O)O)NC(=O)CNC(=O)[C@H](Cc2c[nH]c3ccccc23)NC(=O)[C@H](CC(=O)O)NC(=O)[C@H](CCC(N)=O)NC(=O)[C@H](Cc2cn(C)c3ccccc23)NC1=O [Compound 78] (Ac-SEFCI[Trp(1-Me)]QDWGEHRC[Sar]E-NH2; disulfide 4-14) | − (denotes lack of solubility at the given condition, as UV absorbance at 340 nm exceeds 0.1 AU and/or it is visibly turbid or contains particles.) | − (denotes lack of solubility at the given condition, as UV absorbance at 340 nm exceeds 0.1 AU and/or it is visibly turbid or contains particles.) | + (denotes solubility at the given condition, as determined by UV absorbance being less than 0.1 AU at 340 nm and the sample being clear when manually inspected.) | + (denotes solubility at the given condition, as determined by UV absorbance being less than 0.1 AU at 340 nm and the sample being clear when manually inspected.) | + (denotes solubility at the given condition, as determined by UV absorbance being less than 0.1 AU at 340 nm and the sample being clear when manually inspected.) | < 100 |
| CC[C@H](C)[C@H](NC(=O)[C@H](C)NC(=O)[C@H](CO)NC(=O)CNC(=O)[C@H](CCC(=O)O)NC(C)=O)C(=O)N[C@H]1CSSC[C@@H](C(=O)N(C)CC(=O)N[C@@H](CCC(=O)O)C(N)=O)NC(=O)[C@H](CCCNC(=N)N)NC(=O)[C@H](Cc2c[nH]cn2)NC(=O)[C@H](CCC(=O)O)NC(=O)CNC(=O)[C@H](Cc2c[nH]c3ccccc23)NC(=O)[C@H](CC(=O)O)NC(=O)[C@H](CCC(N)=O)NC(=O)[C@H](Cc2cn(C)c3ccccc23)NC(=O)[C@H]([C@@H](C)CC)NC1=O [Compound 49] (Ac-EGSAICI[Trp(1-Me)]QDWGEHRC[Sar]E-NH2; disulfide 6-16) | − (denotes lack of solubility at the given condition, as UV absorbance at 340 nm exceeds 0.1 AU and/or it is visibly turbid or contains particles.) | − (denotes lack of solubility at the given condition, as UV absorbance at 340 nm exceeds 0.1 AU and/or it is visibly turbid or contains particles.) | + (denotes solubility at the given condition, as determined by UV absorbance being less than 0.1 AU at 340 nm and the sample being clear when manually inspected.) | + (denotes solubility at the given condition, as determined by UV absorbance being less than 0.1 AU at 340 nm and the sample being clear when manually inspected.) | + (denotes solubility at the given condition, as determined by UV absorbance being less than 0.1 AU at 340 nm and the sample being clear when manually inspected.) | < 100 |
